For the assay, the system named is hPSC21/MiaPaca2 co-culture. Put plainly: Co-culture of RFP-labelled MiaPaca2 cancer cells and GFP-labelled hPSC21 stellate cells, kinetic fluorescence imaging. The format is cell-based, Human. From the text:
Pancreatic ductal adenocarcinoma (PDAC) MiaPaca2 cancer cells were transduced with Nuclight Red lentiviral reagent to stably express RFP. Human pancreatic stellate cells 21 (hPSC21) were transduced with the Nuclight Green lentiviral reagent to stably express GFP. Both cell lines were cultures in a 2:1 hPSC21/MiaPaca2 ratio in a 384-well ultra-low attachment plate and treated with the Rho-kinase inhibitor Y-27632, an inducer of a cancer associated fibroblast (CAF) like phenotype of stellate cells (Li et al., Aging, 2020). The cells were incubated at 37° C./5CO2 in the Tecan Spark Cyto multimode plate reader with imaging capabilities and BF, red and green fluorescent images were taken every hour for 48 hours.

The structures appear in SMILES notation.

With `C[C@@H](N)[C@H]1CC[C@H](C(=O)Nc2ccncc2)CC1` [Y-27632], the “morphology versus control sample” value (2:1 hPSC21/MiaPaca2, 384-well ultra-low attachment plate, imaged every hour for 48 hours (FIG. 7D)) was “activation and migration of hPSC21 towards the PDAC cancer cells”. Where the note is “2:1 hPSC21/MiaPaca2 co-culture, imaged every hour for 48 hours (FIG. 7B)”, the “velocity of the objects inside the well” value is on record as “increased”. In addition, under “2:1 hPSC21/MiaPaca2 co-culture, imaged every hour for 48 hours (FIG. 7C)”, the “number of merges of the objects inside the well” value is “increased”.

Values taken from patent US20240230626A9, “METHOD FOR SCREENING POTENTIAL THERAPEUTIC AGENTS” (UNIVERSITEIT ANTWERPEN, priority 2021, published 2024).
